Assay in all cases: NCI tumour cell line growth inhibition, 48 h
Test [1] relates to K-562 leukemia.
The subject of test [2] is COLO 205 colon.
Test [3] deals with LOX IMVI melanoma.
Test [4] concerns NCI-H226 lung.
The test system of test [5] is SF-539 CNS.
The test system of test [6] is UO-31 renal.
For test [7], the system named is MDA-MB-435.
Test [8] relates to HL-60(TB) leukemia.
For test [9], the system named is MALME-3M melanoma.

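Each compound was tested at five concentrations against cells in 96-well plates for 48 hours. The concentration for 50% growth inhibition is given as GI50. The concentration for full growth arrest is given as TGI.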

Turning to `Brc1cccc(C2(CCCC3(c4cccc(Br)n4)OCCO3)OCCO2)n1`, the TGI in [1], in test [2], in test [3], in test [4], in [5] and in test [6] was above 100 µM throughout. In addition, the TGI in test [7] is above 100 µM.

As to `NCCCCNCCCN`, the TGI in test [1], in [2], in test [3], in test [4], in test [5] and in test [6] was above 100 µM each time. For the same compound, the TGI in [7], in [8] and in [9] was above 100 µM throughout.

Consider `C=C1c2nc3ccccc3n2C=C(c2ccc(Cl)cc2)N1c1ccccc1`, for which the TGI in test [1] is above 100 µM; in test [2] it was above 100 µM; in test [3] it was above 100 µM; in test [4], 3.72 µM; in test [5] it was 25.9 µM; in test [6] it was 32.9 µM. The values for the TGI in [7], in test [8] and in [9] were above 100 µM, above 100 µM and 27 µM, respectively.

As for `Oc1[nH]c2ccccc2c1N=NC(=S)N1CCCCCC1`, the TGI in test [2] stood at 6.2 µM; in [3], 2.41 µM; in test [4], 4.45 µM; in test [5], 1.59 µM; in test [6] it was 3.08 µM; in test [7] it was 3.71 µM. Besides, in test [9], the TGI came out at 3.02 µM.

As for `CC(=O)c1ccc(NC(=O)/C(=N\NC(N)=O)C(C#N)CC(C)(C)C=O)cc1` (stereo unspecified), the TGI in [1], in test [2], in [3], in test [4], in test [5] and in test [6] was above 100 µM in each case. In test [8], the TGI was above 100 µM.

In the case of `Sc1nnc(-c2ccccc2Nc2ccccc2-c2nnc(S)n2-c2ccccc2)n1-c1ccccc1`, the TGI in test [1], in [2], in test [3], in [4], in test [5] and in [6] was above 100 µM each time. Besides, the TGI in test [7] was 53 µM; in test [8] it was 67.1 µM.

As for `Cc1ccc(NC(=O)c2cccc([N+](=O)[O-])c2O)c(C)c1`, the TGI in test [1] is above 100 µM; in [2], above 100 µM; in test [3] it was above 100 µM; in test [4], above 100 µM; in [5] it was 89.6 µM; in test [6], 35.1 µM. The TGI is 55.6 µM in [8] and 17.9 µM in [9].

Take `FC1CCN(C2(c3cccs3)CCCCC2)CC1`: the TGI in test [1], in [2], in [3], in [4], in [6] and in test [7] was above 100 µM in each case. In addition, the TGI in [8] and in test [9] was above 100 µM throughout.

With `CCCCNC(=S)/N=C/c1c(O)c2ccccc2oc1=O`, the TGI in test [2], in test [3], in test [4], in test [5], in test [6] and in test [7] was above 100 µM each time.

For the compound `O=C(/C=C/c1cccs1)c1ccsc1`, the TGI in test [1] stood at 89.8 µM; in test [2], 38 µM; in test [3] it was 35.1 µM; in test [4], 48.5 µM; in [6], 32.4 µM; in test [7] it was 39.8 µM. Further, the results for the TGI in [8] and in [9] were 42.1 µM and 59 µM, respectively.

Turning to `NCCCn1c2c(c3ccc([N+](=O)[O-])cc3c1=O)C(=O)c1cc3c(cc1-2)OCO3`, the GI50 in test [1] was 0.0581 µM; in test [3], below 0.01 µM; in [6], below 0.01 µM; in test [7], 0.592 µM; in [8] it was below 0.0155 µM; in [9], 0.488 µM. Also, the TGI is 0.121 µM in [3], 0.2 µM in test [6], 3.28 µM in test [7] and 2.82 µM in test [9].

On to `O=C(c1ccc(Cl)cc1)N(C(=S)N1CCN(c2ccccn2)CC1)c1ccccc1`, for which the TGI in test [1], in test [2], in test [3], in test [4], in test [5] and in test [6] was above 100 µM throughout. Besides, the TGI in [8] and in [9] was above 100 µM in each case.

`CC(=O)OCC1OC(OCC2OC(N3C(=S)N[C@H]([C@@H](O)[C@H](O)[C@H](O)CO)[C@H]3O)C(OC(C)=O)C(OC(C)=O)C2OC(C)=O)C(OC(C)=O)C(OC(C)=O)C1OC(C)=O` (stereo partly specified): the TGI in test [1], in test [2], in test [5], in test [6], in test [7] and in test [9] was above 100 µM in each case.
